We go through three compounds from patent US10375956B2, “Herbicidally active 2-(substituted-phenyl)-cyclopentane-1,3-dione compounds and derivatives thereof” (Syngenta Limited, priority 2013, dated 2019).

Assay in all cases: Test 2 glasshouse assay (IF50 formulation, X-77), post-emergence herbicidal activity
Holding throughout (assay type): in vivo

Assay [1] concerns Beta vulgaris (BEAVA, sugarbeet). To be noted: 360 h, 15 DAA, visual score, read-out: Post-emergence herbicidal activity (percentage phytotoxicity) BEAVA; for plant injury at 250 g/ha: application rate 250 g/ha; for plant injury at 30 g/ha: application rate 30 g/ha. The procedure:
(§1) Seeds of a variety of monocotyledonous and dicotyledonous test plants are sown in standard soil in pots. The plants are cultivated for one day (for pre-emergence) or for about 12 days (for post-emergence) under controlled conditions in a glasshouse (warm climate species at 24/18° C., cool climate species at 20/16° C., both at day/night; 16 hours light; 65% humidity).
(§2) An “instant formulation”, known as the “IF50”, containing 50 g/liter (i.e. 5% w/v) of the “technical” (i.e. unformulated) active ingredient is prepared by dissolving the active ingredient in a mixture of organic solvents and emulsifier, details of which are provided in the Table below. This IF50 is then mixed with a small, variable amount of acetone to aid dissolution, before addition of a 0.2% v/v aqueous solution of the adjuvant X-77 (which is a mixture of alkyl aryl polyoxyethylene glycols and free fatty acids in isopropanol, CAS Registry number 11097-66-8), as the aqueous diluent, to form an aqueous spray solution which contains a predetermined concentration of the active ingredient (which varies depending on the application rate of the active ingredient to the plants) and 0.2% v/v of the adjuvant X-77. This aqueous spray solution is then sprayed onto the plants, after one day's cultivation (for pre-emergence), or after about 12 days' cultivation (range=10-13 days) (for post-emergence).
(§3) The test plants are then grown on, in a glasshouse (greenhouse) under controlled conditions (warm climate species at 24/18° C., cool climate species at 20/16° C., both at day/night; 16 hours light; 65% humidity) and are watered twice daily. 15 days after application of the test herbicide (15DAA) (for post-emergence), and 20 days after application of the test herbicide (20DAA) (for pre-emergence), the test plants are evaluated visually, and an assessed percentage phytotoxicity score is given for each herbicidal application on each plant species (with 100%=total damage to plant; 0%=no damage to plant).
(§4) Cool climate crop plants: Triticum aestivum (TRZAW, winter wheat), Brassica napus (BRSNN, rape, also called oilseed rape or rapeseed), Beta vulgaris (BEAVA, sugarbeet). Warm climate crop plants: Glycine max (GLXMA, soybean).

Assay [2] deals with Brassica napus (BRSNN, rape). As to conditions: 360 h, 15 DAA, visual score, read-out: Post-emergence herbicidal activity (percentage phytotoxicity) BRSNN; for plant injury at 250 g/ha: application rate 250 g/ha; for plant injury at 30 g/ha: application rate 30 g/ha. The method, then:
as §1, §2, §3, §4

The test system of assay [3] is Glycine max (GLXMA, soybean). To be noted: 360 h, 15 DAA, visual score, read-out: Post-emergence herbicidal activity (percentage phytotoxicity) GLXMA; for plant injury at 250 g/ha: application rate 250 g/ha; for plant injury at 30 g/ha: application rate 30 g/ha. The method, then:
as §1, §2, §3, §4

Assay [4] has as its system Triticum aestivum (TRZAW, winter wheat). As to conditions: 360 h, 15 DAA, visual score, read-out: Post-emergence herbicidal activity (percentage phytotoxicity) TRZAW; for plant injury at 250 g/ha: application rate 250 g/ha; for plant injury at 30 g/ha: application rate 30 g/ha. The method, then:
as §1, §2, §3, §4

The subject of assay [5] is Alopecurus myosuroides (ALOMY). To be noted: 360 h, 15 DAA, visual score, read-out: Post-emergence herbicidal activity (percentage phytotoxicity) ALOMY; for pest or weed control at 250 g/ha: application rate 250 g/ha; for pest or weed control at 30 g/ha: application rate 30 g/ha. The procedure: as §1, §2, §3
(§5) Cool climate (“cool season”) grassy monocotyledonous weeds: Alopecurus myosuroides (ALOMY), Avena fatua (AVEFA), Lolium perenne (LOLPE).

Assay [6] relates to Avena fatua (AVEFA). As to conditions: 360 h, 15 DAA, visual score, read-out: Post-emergence herbicidal activity (percentage phytotoxicity) AVEFA; for pest or weed control at 250 g/ha: application rate 250 g/ha; for pest or weed control at 30 g/ha: application rate 30 g/ha. The procedure: as §1, §2, §3, §5
Assay [7] relates to Lolium perenne (LOLPE). As to conditions: 360 h, 15 DAA, visual score, read-out: Post-emergence herbicidal activity (percentage phytotoxicity) LOLPE; for pest or weed control at 250 g/ha: application rate 250 g/ha; for pest or weed control at 30 g/ha: application rate 30 g/ha. The method, then:
as §1, §2, §3, §5

The subject of assay [8] is Digitaria sanguinalis (DIGSA). As to conditions: 360 h, 15 DAA, visual score, read-out: Post-emergence herbicidal activity (percentage phytotoxicity) DIGSA; for pest or weed control at 250 g/ha: application rate 250 g/ha; for pest or weed control at 30 g/ha: application rate 30 g/ha. The procedure: as §1, §2, §3
(§6) Warm climate (“warm season”) grassy monocotyledonous weeds: Setaria faberi (SETFA), Panicum miliaceum (PANMI), Sorghum vulgare Pers. (SORVU) (or Sorghum bicolor (L) Moench ssp. Bicolor), Digitaria sanguinalis (DIGSA), Echinochloa crus-galli (ECHCG), and Brachiaria plantaginea (BRAPL).

Assay [9] concerns Echinochloa crus-galli (ECHCG). As to conditions: 360 h, 15 DAA, visual score, read-out: Post-emergence herbicidal activity (percentage phytotoxicity) ECHCG; for pest or weed control at 250 g/ha: application rate 250 g/ha; for pest or weed control at 30 g/ha: application rate 30 g/ha. The method, then: as §1, §2, §3, §6
The test system of assay [10] is Panicum miliaceum (PANMI). To be noted: 360 h, 15 DAA, visual score, read-out: Post-emergence herbicidal activity (percentage phytotoxicity) PANMI; for pest or weed control at 250 g/ha: application rate 250 g/ha; for pest or weed control at 30 g/ha: application rate 30 g/ha. The method, then:
as §1, §2, §3, §6

For assay [11], the system named is Setaria faberi (SETFA). To be noted: 360 h, 15 DAA, visual score, read-out: Post-emergence herbicidal activity (percentage phytotoxicity) SETFA; for pest or weed control at 250 g/ha: application rate 250 g/ha; for pest or weed control at 30 g/ha: application rate 30 g/ha. The method, then:
as §1, §2, §3, §6

Assay [12] concerns Sorghum vulgare Pers. (SORVU). As to conditions: Sorghum bicolor, 360 h, 15 DAA, visual score, read-out: Post-emergence herbicidal activity (percentage phytotoxicity) SORVU; for pest or weed control at 250 g/ha: application rate 250 g/ha; for pest or weed control at 30 g/ha: application rate 30 g/ha. The procedure: as §1, §2, §3, §6

For the compound `C#CCC1CC(=O)C(c2c(F)cc(-c3ccc(Cl)cc3)cc2Cl)C1=O` (stereo not drawn) [Compound A6, 2-[2-chloro-4-(4-chlorophenyl)-6-fluorophenyl]-4-prop-2-ynylcyclopentane-1,3-dione], the plant injury at 125 g/ha in assay [1] (application rate 125 g/ha) amounted to 20%; in [2] (application rate 125 g/ha), 20%; in [3] (application rate 125 g/ha), 10%; in assay [4] (application rate 125 g/ha) it was 80%. In addition, the plant injury at 250 g/ha in assay [1] was determined as 40%; in assay [2], 40%; in assay [3] it was 10%; in [4], 90%. The pest or weed control at 125 g/ha in assay [5] (application rate 125 g/ha) came out at 80%; in assay [6] (application rate 125 g/ha), 70%; in [7] (application rate 125 g/ha), 30%; in assay [8] (application rate 125 g/ha), 100%; in [9] (application rate 125 g/ha) it was 100%; in assay [10] (application rate 125 g/ha), 100%. In addition, the pest or weed control at 125 g/ha in [11] (application rate 125 g/ha) and in [12] (application rate 125 g/ha) was 100% in each case. Further, the pest or weed control at 250 g/ha in assay [5] was found to be 100%; in assay [6] it was 80%; in assay [7] it was 70%; in assay [8] it was 100%; in assay [9] it was 100%; in assay [10] it was 100%. The pest or weed control at 250 g/ha in assay [11] and in assay [12] was 100% throughout.

As for `C#CCC1CC(=O)C(c2c(F)cc(-c3ccc(Cl)cn3)cc2Cl)C1=O` (stereo not drawn) [Compound A8], the plant injury at 30 g/ha in assay [1] is 10%; in assay [2], 70%; in assay [3], 20%; in assay [4], 30%. The plant injury at 250 g/ha in assay [1] was 60%; in assay [2], 80%; in [3], 40%; in assay [4] it was 90%. The pest or weed control at 30 g/ha was 50% in assay [5]; 50% in assay [6]; 40% in [7]; 90% in assay [8]; 70% in [9]; 100% in [10]. In addition, the pest or weed control at 30 g/ha in assay [11] stood at 90%; in assay [12], 100%. Besides, the pest or weed control at 250 g/ha in assay [5] came to 80%; in assay [6], 90%; in assay [7], 60%; in [8], 100%; in [9] it was 100%; in assay [10] it was 100%. Further, the pest or weed control at 250 g/ha in [11] and in assay [12] was 100% each time.

As for `C#CCC1CC(=O)C(c2c(Cl)cc(-c3ccc(Cl)cn3)cc2OC)C1=O` (stereo not drawn) [Compound A10], the plant injury at 30 g/ha is 60% in assay [1], 80% in [2], 40% in assay [3] and 70% in [4]. Moreover, the plant injury at 250 g/ha is 80% in [1], 80% in [2], 70% in assay [3] and 80% in assay [4]. Also, the pest or weed control at 30 g/ha amounted to 50% in assay [5]; 60% in [6]; 30% in assay [7]; 100% in assay [8]; 100% in [9]; 100% in [10]. For the same compound, the pest or weed control at 30 g/ha in assay [11] and in assay [12] was 100% throughout. Further, the pest or weed control at 250 g/ha came out at 100% in [5]; 100% in [6]; 90% in [7]; 100% in [8]; 100% in assay [9]; 100% in [10]. Further, the pest or weed control at 250 g/ha in assay [11] and in assay [12] was 100% in each case.
